SMILES	melting point
CSC(=NNCCCCc1ncc(Br)cc1C)NC#N	127 to 128 °C
O=c1nc(-c2cccc(Sc3ncccn3)n2)sc2ccccc12	245 to 246 °C
COn1c(C(C)C)nc2c(N)nc3ccccc3c21	217 to 219 °C
CC(C)(C)c1cc(-c2nc(S)sc2-c2ccccc2)cc(C(C)(C)C)c1O	168 to 171 °C
Clc1cc(-n2cncn2)ncn1	93 to 97 °C
O=C(NCCn1cncn1)c1ccc(Cl)nc1	186 to 188 °C
COC(=O)Nc1nc(-c2ccccc2)c(-c2nc3ccccc3c(=O)n2-c2ccc(Cl)cc2)s1	> 275 °C
CC(C)(C)[Si](C)(C)Oc1ccc2c(ccc3c4ccc(O[Si](C)(C)C(C)(C)C)cc4oc(=O)c23)c1	154 to 156 °C
CCOC(=O)c1[nH]c2ccc(Cl)cc2c1-c1ccccc1	171 to 172 °C
CNC(=O)C[C@@H](c1ccccc1)c1c[nH]c2cccc(OC)c12	178 to 181 °C
O=C(O)C=CC(=O)N(CC1CO1)NCC1CO1 (stereo unspecified)	58 °C
COc1ccc(Oc2ccc(C(=O)N(C3CCCC3)C3CCCC3)cc2)cc1OC	180 °C
COC(OC)C(C)n1nnc2ccc(OCc3ccccc3)cc21 (stereo unspecified)	101 to 103 °C
O=C(c1ccccc1CBr)c1cc(Cl)ccc1CBr	152 to 153 °C
N=C(N)c1ccncc1	136 to 140 °C
C=C(CCCCCCCCC)C(N)=O	80 to 81 °C
COc1cc(Nc2nc3cccc(-c4cccc(CNC(C)=O)c4)c3o2)cc(OC)c1OC	203 to 204 °C
COc1ccc2ncccc2c1N	152 to 154 °C
COC(=O)N1C(=S)NC(C)=C(C(=O)OC(C)C)C1c1cccc([N+](=O)[O-])c1 (stereo unspecified)	130 to 132 °C

SMILES	melting point
Cc1oc(-c2ccccc2)nc1COc1ccc(COc2nn(Cc3ccc(OCc4nc(-c5ccccc5)oc4C)cc3)cc2CO)cc1	157 to 158 °C
OC(CCCl)COc1ccc(Cl)cc1 (stereo unspecified)	62 to 64 °C
COc1ccc(C(C(Br)c2ccc(F)cc2)C(F)(F)F)cc1 (stereo unspecified)	73 to 94 °C
COc1ccc(C2C(C#N)=C(N)Oc3c2ccc2cccnc32)cc1OC (stereo unspecified)	118 to 120 °C
COC(=O)C1=C(C)NC(C)=C(C(=O)OCCN2CCN(C(c3ccccc3)c3ccccc3)CC2)C1c1cccc(Cl)c1 (stereo unspecified)	74 to 80 °C
CC1(C)CCC(C)(C)c2cc(-c3cc(-c4ccc(C(=O)O)cc4)ccc3OCCCCO)ccc21	235 °C
CCCCCCCCCCOc1ccc(-c2ccc(OCCCCCCCCCC)c(OCCCCCCCCCC)c2)cc1OCCCCCCCCCC	85 to 86 °C
COC1(c2cc(O)cc(F)c2)CCOC1 (stereo unspecified)	136 to 137 °C
Nc1ccn(C2CC(N)C(CO)O2)c(=O)n1 (stereo unspecified)	207 °C
CC(C)(C)c1ccc(OP2N(c3ccccc3)P(Oc3ccc(C(C)(C)C)cc3C(C)(C)C)N2c2ccccc2)c(C(C)(C)C)c1 (stereo unspecified)	162 to 166 °C
C#CCN1CC[C@H](O)C1=O	89 to 90 °C
O=C(O)c1ncc2[nH]c3c([N+](=O)[O-])cc([N+](=O)[O-])cc3c2n1	269 to 272 °C
FC(F)(F)c1ccc2nc(-c3csc(Nc4ncccc4Cl)n3)[nH]c2c1	207 to 208 °C
COc1ccc(-c2c(C)ncc(C#N)c2Nc2ccc3[nH]ccc3c2C)cc1OC	202 to 203 °C
O=S1(=O)c2ccccc2N(c2ccc(O)cc2)c2ccccc21	308 to 311 °C
O=C(C(Cl)=Cn1ccnc1)c1ccc(Cl)cc1Cl	149 to 151 °C
N#CCC(=O)Nc1ccc(C(F)(F)F)cc1	194 to 196 °C
Nc1ccc(OC2=C(Oc3ccc(N)cc3C(F)(F)F)C(F)(F)C(F)(F)C2(F)F)c(C(F)(F)F)c1	88 to 93 °C
O=C1CSCC(=O)NCCOCCN1	186 to 188 °C

SMILES	melting point
CCOC(=O)CN(C)S(=O)(=O)c1ccsc1C(=O)OC	84 to 85 °C
CNS(=O)(=O)N(C)C(=O)CCCl	96 °C
Cc1ccc2c(c1)C(C)(Cl)C(=S)N2 (stereo unspecified)	185 to 187 °C
CC(Oc1ccnc2cc(Cl)ccc12)c1ccccc1F (stereo unspecified)	53 to 54 °C
CSc1cc(CF)nc(N)n1	95 to 97 °C
O=C(c1ccc(Cl)cc1)c1ccc(CSC(F)F)cc1	34 to 35 °C
COc1cc(OC)c(C=CC(=O)c2ccc(S(N)(=O)=O)cc2)cc1C#Cc1ccccc1N	167 to 169 °C
CCCCc1cn(Cc2ccc(-c3ccccc3C(=O)O)cc2)c2c(Br)cccc2c1=O	180 °C
O=C(CNc1ccccc1)Nc1ccc(F)cc1C(=O)O	194 to 195 °C
COC(=O)c1cncn1C1CCCc2ccccc21 (stereo unspecified)	63 °C
CC(C)(C)OC(=O)Nc1ccc(-c2cc(F)ccc2F)cc1[N+](=O)[O-]	104 °C
C[C@@H]1[C@H](c2ccccc2)OC(=O)N1C(=O)CC1c2ccccc2C=Cc2ccccc21	172 to 173 °C
Cc1cc(OCc2cnc(-c3cccc(C(F)(F)F)c3)nc2C2CC2)ccc1OC(C)(C)C(=O)O	175 to 176 °C
COC(=O)c1nc(Cl)c(N2CCCC2)nc1N	245 to 248 °C
C#CCN1CCC(C(C)(C)CO)CC1	78 to 82 °C
CCNC(=O)C=Cc1ccc(C(=C(CC)c2ccccc2)c2ccccc2)cc1	192 to 193 °C
CC1(C)SC2C(N3C(=O)c4ccccc4C3=O)C(=O)N2C1C(=O)OCc1ccc([N+](=O)[O-])cc1 (stereo unspecified)	233 to 234 °C
CNC(CO)CCOc1cccc2ccccc12 (stereo unspecified)	101 to 102 °C
O=c1[nH]cnc(C(F)(F)F)c1Br	226 to 227 °C

The remaining lines, values ahead:

melting point	SMILES
236 °C	Cc1nc2ncnn2c(N2CCC(C)CC2)c1-c1ccc(F)cc1Cl
169 to 170 °C	CCC(=O)NCCc1c(-c2ccccc2)nn2ccc3c(c12)CCO3
138 to 139 °C	Cc1n[nH]c(NCCCCOc2cccc(CN3CCCCC3)c2)n1
164 °C	N#Cc1c(N2CCc3ccccc3CC2)nc(CCO)n(CCO)c1=O
181 to 184 °C	CC(=O)Oc1ccccc1-c1ccc(=O)[nH]n1
92 to 94 °C	Cn1c(=O)c(-c2ccccc2Cl)cc2cnc(NC3C4CN(Cc5ccccc5)CC43)nc21 (stereo unspecified)
177 to 179 °C	Cc1ccc(S(=O)(=O)NCCNC2(c3ccc(Cl)cc3)OC(=O)c3ccccc32)cc1 (stereo unspecified)
138 to 142 °C	CN(C)c1ccc(CNc2nc(Nc3cccc(NS(C)(=O)=O)c3)nc3[nH]cnc23)cc1
226 °C	COc1ccc(N2CCN(c3ccc(N4C(=O)N(C(C)C(C)=O)C(C)(C)C4=O)cc3)CC2)cc1 (stereo unspecified)
158 to 160 °C	N#Cc1cc(S(=O)(=O)c2ccc([N+](=O)[O-])cc2)cc(Br)n1
108 to 111 °C	COCC1(C)OC(=O)N(c2cc(Cl)cc(Cl)c2)C1=O (stereo unspecified)
183 to 184 °C	CCCCCC/C=C(\C(=O)Nc1ccc(C(=O)O)cc1)c1ccc2c(c1)C(C)(C)CCC2(C)C
152 to 153 °C	Cc1nn2c(C=O)c(-c3ccccc3)nc2s1
165 to 166 °C	O=S(=O)(Cl)c1cc(S(=O)(=O)Cl)c2c(Cl)ccc(S(=O)(=O)Cl)c2c1
160 °C	Cc1cccc(NC(=O)NCC(=O)N(CC(=O)OC2(C)CCCC2)c2ccccc2)c1
250 to 255 °C	O=C(O)c1cc2ccc(C3OC(CO)C(O)C(O)C3O)cc2oc1=O (stereo unspecified)
123 to 125 °C	O=C1OC(CCCN2CCN(c3ccccn3)CC2)CN1c1ccccc1 (stereo unspecified)
192 to 193 °C	O=C(CCCOc1cccc(CN2CCCCC2)c1)Nc1nc(CCc2ccccc2)n[nH]1
81 to 84 °C	N#CCc1nc(C(=O)c2ccc(Cl)cc2)no1
220 to 221 °C	CCOC(=O)Cn1c(=O)n(Cc2ccc(Br)cc2F)c(=O)c2cc(Cl)c(Cl)cc21
77 to 78 °C	CC(C)Nc1cc2c(cc1C(=O)c1ccccc1)OCO2
156 to 158 °C	O=C1N(N2CCCCC2)c2ccccc2C1(O)Cc1ccncc1 (stereo unspecified)

melting point	SMILES
134 to 135 °C	Cc1ccc(-c2cc(CNC(CO)CO)c(=O)n(CC(C)C)n2)cc1
154 °C	CCCCNC(=O)Oc1cccc(NC(=O)NC2CC2)c1
223 to 225 °C	COc1cc2ncnc(N3CCc4c(Br)ccc(C)c43)c2cc1OC
280 to 283 °C	Cc1nnc(NCCN2CCN(c3ncccn3)CC2)c2cc3ccccn3c12
100 to 101 °C	CC(C)(COC(=O)c1ccccc1)c1cc(OS(C)(=O)=O)ccc1OC(=O)c1ccccc1
145 °C	OC(CNC1CCC1)c1cc(C(F)(F)F)nc2c(C(F)(F)F)cccc12 (stereo unspecified)
212 to 214 °C	O=C(O)Cn1ncc2c(=O)n3c(nc21)SCC3
140 to 141 °C	CC(C)N(CCOc1ccc(NC(=O)c2c[nH]c3c2C(=O)CCC3)cc1)C(C)C
108 to 109 °C	CCOC(=O)CCC1CCN(C(=O)[C@H](C)NC(=O)c2ccc(C#N)cc2)CC1
195 to 196 °C	CC(=O)c1ccc(Nc2cccc(-c3ccccn3)c2)c([N+](=O)[O-])c1
250 to 253 °C	CCNS(=O)(=O)c1nc2cc(C(=O)c3ccccc3)ccc2[nH]1
192 to 193 °C	CCOC(=O)Cn1c(=O)c2cc(F)c(-c3ncc[nH]3)cc2n(Cc2ccc(Cl)cc2Cl)c1=O
82 to 83 °C	CCC(C)c1nn(-c2ccc(C(F)(F)F)cn2)cc1C=O (stereo unspecified)
148 to 151 °C	Cc1nc2ccc3c(c2o1)OC(CN1CCC(O)(c2cccc(C(F)(F)F)c2)CC1)CO3 (stereo unspecified)
98 to 99 °C	COc1c(Cl)ccc(C(=O)O)c1SC
154 °C	COC(=O)CCC#Cc1cc(Cl)ccc1NS(=O)(=O)c1ccc2c(c1)CCN2C(C)=O
128 to 130 °C	CCc1nc2c(C)cc(C)nc2n1-c1ccc(CCNC(=O)NS(=O)(=O)c2cc3ccccc3s2)cc1
153 to 155 °C	C=CCN1N=C(c2ccc3c(c2)N(S(C)(=O)=O)CCO3)CCC1=O
142 to 143 °C	O=C1c2ccc([N+](=O)[O-])cc2C(=O)N1CCc1ccccc1
140 to 143 °C	O=CNC1Cc2cccc3c2N(CCC3)C1=O (stereo unspecified)
140 to 144 °C	CC(C)n1nc(-c2c(-c3ccccc3)nn3ccc(OCC(=O)N4CCN(C(=O)OC(C)(C)C)CC4)cc23)ccc1=O
309 to 310 °C	CCOC(=O)c1cnc2nc3ccccc3n2c1O

From a melting point compilation (Tetko et al.; mined from patent text by program, amines drawn as free bases though some values may be those of a salt)
